In PubChem BioAssay AID1963974 (Molecular Pharmacology Branch, DTP, NCI, 2024) one finds IC50 and viability, T/C data, which are given here for 5 compounds.

The test concerns 648629-189-R-J1-PDC spheroids with HUVEC/MSC, viability. The experiment in a line: Anticancer human tumor 648629-189-R-J1-PDC patient-derived bladder carcinoma cell line growth inhibition [PI3K]. The settings on record: for viability, T/C: stronger effect = lower value. Put shortly:
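Spheroid viability read-out. Co-cultures contained the tumor line plus HUVEC and human MSCs. Each agent was paired with a PI3K inhibitor (inavolisib, alpelisib, duvelisib, copanlisib) across half-log dilutions starting at clinical Cmax, or at 10 microM when Cmax was unknown.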

Setting [1] is: curve of first compound, second compound 0.0316 µM.
Where [2] appears, read: curve of first compound, second compound 0.1 µM.
[3] abbreviates: curve of first compound, second compound 0.316 µM.
Where [4] appears, read: curve of first compound, second compound 1 µM.
Setting [5] is: second compound 0.0316 µM, first compound 0.0316 µM.
Setting [6] is: second compound 0.0316 µM, first compound 0.1 µM.
The mark [7] stands for this setting: second compound 0.0316 µM, first compound 0.316 µM.
The mark [8] stands for this setting: second compound 0.0316 µM, first compound 1 µM.
The mark [9] stands for this setting: second compound 0.0316 µM, first compound 3.16 µM.
The mark [10] stands for this setting: second compound 0.0316 µM, first compound 10 µM.
[11] abbreviates: second compound 0.1 µM, first compound 0.0316 µM.
[12] abbreviates: second compound 0.1 µM, first compound 0.1 µM.
The mark [13] stands for this setting: second compound 0.1 µM, first compound 0.316 µM.
[14] abbreviates: second compound 0.1 µM, first compound 1 µM.
Setting [15] is: second compound 0.1 µM, first compound 3.16 µM.
Where [16] appears, read: second compound 0.1 µM, first compound 10 µM.
[17] abbreviates: second compound 0.316 µM, first compound 0.0316 µM.
The mark [18] stands for this setting: second compound 0.316 µM, first compound 0.1 µM.
[19] abbreviates: second compound 0.316 µM, first compound 0.316 µM.
[20] abbreviates: second compound 0.316 µM, first compound 1 µM.
Where [21] appears, read: second compound 0.316 µM, first compound 3.16 µM.
Where [22] appears, read: second compound 0.316 µM, first compound 10 µM.
The mark [23] stands for this setting: second compound 1 µM, first compound 0.0316 µM.
[24] abbreviates: second compound 1 µM, first compound 0.1 µM.
Setting [25] is: second compound 1 µM, first compound 0.316 µM.
The mark [26] stands for this setting: second compound 1 µM, first compound 1 µM.
The mark [27] stands for this setting: second compound 1 µM, first compound 3.16 µM.
[28] abbreviates: second compound 1 µM, first compound 10 µM.

Where “and” joins values, the source holds several entries; their conditions need not be identical. Equal values may be shown once.
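Also: spheroids exposed to agents for seven days before reading.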
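For viability, T/C in this document: percent of vehicle control luminescence where 100% = DMSO treated spheroids.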

The IC50 is the midpoint of a concentration-inhibition curve. For orientation: viability, T/C means the ratio of treated to control. Turning to `C#Cc1c(F)ccc2cc(O)cc(-c3ncc4c(N5CC6CCC(C5)N6)nc(OCC56CCCN5CC(F)C6)nc4c3F)c12` (stereo not drawn) + CC(Nc1ncnc2nc[nH]c12)c1cc2cccc(Cl)c2c(=O)n1-c1ccccc1, the IC50 is, setting by setting: under setting [1], > 10 µM; under setting [2], > 10 µM; under setting [3], > 10 µM; under setting [4], > 10 µM; (curve of first compound, second compound 3.16 µM) > 10 µM; (curve of first compound, second compound 10 µM) > 10 µM. In addition, the viability, T/C is, setting by setting: under setting [5], 116%; under setting [6], 114%; under setting [7], 103%; under setting [8], 107%; under setting [9], 105%; under setting [10], 117%. In addition, the viability, T/C reads like this: under setting [11], 116%; under setting [12], 100%; under setting [13], 104%; under setting [14], 106%; under setting [15], 117%; under setting [16], 110%. In addition, the viability, T/C is, setting by setting: under setting [17], 102%; under setting [18], 110%; under setting [19], 101%; under setting [20], 113%; under setting [21], 116%; under setting [22], 111%. Further, the viability, T/C was 92.8% under setting [23]; 104% under setting [24]; 107% under setting [25]; 114% under setting [26]; 107% under setting [27]; 94.4% under setting [28]. Further, the viability, T/C (second compound 3.16 µM, first compound 0.0316 µM) is 92%; the viability, T/C (second compound 3.16 µM, first compound 0.1 µM) is 91.4%; the viability, T/C (second compound 3.16 µM, first compound 0.316 µM) was 90.7%; the viability, T/C (second compound 3.16 µM, first compound 1 µM) is 90.1%; the viability, T/C (second compound 3.16 µM, first compound 3.16 µM) was 93.4%; the viability, T/C (second compound 3.16 µM, first compound 10 µM) was 88.1%. Further, the viability, T/C by setting is: (second compound 10 µM, first compound 0.0316 µM) 90.7%; (second compound 10 µM, first compound 0.1 µM) 86.1%; (second compound 10 µM, first compound 0.316 µM) 75.7%; (second compound 10 µM, first compound 1 µM) 102%; (second compound 10 µM, first compound 3.16 µM) 92.5%; (second compound 10 µM, first compound 10 µM) 80.3%.

On to `Cn1ncc(Cl)c1-c1cc(C(=O)NC(CN)Cc2cccc(F)c2)sc1Cl` (stereo not drawn), for which the viability, T/C reads like this: (compound 0.0316 µM) 111% [middle of 4 runs]; (compound 0.1 µM) 86.8% [middle of 4 runs]; (compound 0.316 µM) 72.9% [middle of 4 runs]; (compound 1 µM) 35.3% [middle of 4 runs]; (compound 3.16 µM) 25% [middle of 4 runs]. The IC50 (curve of compound) is 818 nM [middle of 4 runs].

Take `CC(C)NCC(C(=O)N1CCN(c2ncnc3c2C(C)CC3O)CC1)c1ccc(Cl)cc1` (stereo not drawn): the viability, T/C was 95.2% and 106% (2×) and 98.2% (compound 0.0316 µM); 86% [middle of 4 runs] (compound 0.316 µM); 48% [middle of 4 runs] (compound 1 µM); 29.7% [middle of 4 runs] (compound 3.16 µM); 16.6% and 15.3% (2×) and 14.4% (compound 10 µM). Also, the IC50 (curve of compound) is 1.06 µM [middle of 4 runs].

Turning to `CCN1CCN(Cc2ccc(Nc3ncc(F)c(-c4cc(F)c5nc(C)n(C(C)C)c5c4)n3)nc2)CC1`, the viability, T/C (compound 0.00316 µM) was 107% [middle of 4 runs]; the viability, T/C (compound 0.01 µM) was 96.7% [middle of 4 runs]; the viability, T/C (compound 0.0316 µM) was 103% [middle of 4 runs]; the viability, T/C (compound 0.1 µM) was 103% [middle of 4 runs]; the viability, T/C (compound 0.316 µM) was 109% [middle of 4 runs]; the viability, T/C (compound 1 µM) was 117% [middle of 4 runs]. In addition, under “curve of compound”, the IC50 was > 1 µM.

Turning to `CC1(C)CCC(CN2CCN(c3ccc(C(=O)NS(=O)(=O)c4ccc(NCC5CCOCC5)c([N+](=O)[O-])c4)c(Oc4cnc5[nH]ccc5c4)c3)CC2)=C(c2ccc(Cl)cc2)C1` + COc1c(OCCCN2CCOCC2)ccc2c3n(c(=NC(=O)c4cnc(N)nc4)nc12)CCN3, the IC50 runs as follows: (curve of first compound, second compound 0.00316 µM) > 10 µM; (curve of first compound, second compound 0.01 µM) > 10 µM; under setting [1], > 10 µM; under setting [2], > 10 µM; under setting [3], < 0.0316 µM; under setting [4], < 0.0316 µM. Moreover, the viability, T/C by setting is: (second compound 0.00316 µM, first compound 0.0316 µM) 107%; (second compound 0.00316 µM, first compound 0.1 µM) 97.6%; (second compound 0.00316 µM, first compound 0.316 µM) 119%; (second compound 0.00316 µM, first compound 1 µM) 108%; (second compound 0.00316 µM, first compound 3.16 µM) 86.5%; (second compound 0.00316 µM, first compound 10 µM) 98.2%. For the same compound, the viability, T/C (second compound 0.01 µM, first compound 0.0316 µM) was 104%; the viability, T/C (second compound 0.01 µM, first compound 0.1 µM) is 106%; the viability, T/C (second compound 0.01 µM, first compound 0.316 µM) is 106%; the viability, T/C (second compound 0.01 µM, first compound 1 µM) was 91.2%; the viability, T/C (second compound 0.01 µM, first compound 3.16 µM) was 91%; the viability, T/C (second compound 0.01 µM, first compound 10 µM) is 102%. The viability, T/C under setting [5] was 97%; the viability, T/C under setting [6] was 99.8%; the viability, T/C under setting [7] is 114%; the viability, T/C under setting [8] is 89.5%; the viability, T/C under setting [9] is 92.7%; the viability, T/C under setting [10] is 102%. Besides, the viability, T/C was 65.7% under setting [11]; 68.8% under setting [12]; 65.8% under setting [13]; 63.8% under setting [14]; 59.3% under setting [15]; 58.4% under setting [16]. Also, the viability, T/C runs as follows: under setting [17], 24.1%; under setting [18], 22.1%; under setting [19], 23.5%; under setting [20], 19.9%; under setting [21], 23.7%; under setting [22], 19.6%. Moreover, the viability, T/C reads like this: under setting [23], 4.02%; under setting [24], 3.65%; under setting [25], 4.06%; under setting [26], 3.2%; under setting [27], 3.26%; under setting [28], 2.9%.
